From the supplement of paper PMC10307832

Tests used:
Experiment in all cases: relative viability (nuclei count vs DMSO), 5 days (fraction); higher = more cells survive
[1] = compound: CC1=C(C(=O)N2C=CSC2=N1)CCN3CCC(=C(C4=CC=CC=C4)C5=CC=C(C=C5)F)CC3 + CS(=O)(=O)CCNCc1ccc(-c2ccc3ncnc(Nc4ccc(OCc5cccc(F)c5)c(Cl)c4)c3c2)o1 [Lapatinib] (partner 2 µM)
In short: (§1)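 Each reported value is a median over duplicate plates. It expresses relative viability: treated-well nuclei count divided by vehicle-well nuclei count. Lung cancer cell lines in 1536-well plates were dosed by pin tool a day after seeding, alone with one drug or with a fixed anchor-drug dose plus five library-drug doses (not always all listed) in √10 steps, and nuclei were counted after 5 days.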

[2] = compound: CC1=C(C(=O)N2C=CSC2=N1)CCN3CCC(=C(C4=CC=CC=C4)C5=CC=C(C=C5)F)CC3 + O=C(c1cc(Cc2n[nH]c(=O)c3ccccc23)ccc1F)N1CCN(C(=O)C2CC2)CC1 [Olaparib] (partner 8 µM)
In short: as §1

[3] = compound: CC1=C(C(=O)N2C=CSC2=N1)CCN3CCC(=C(C4=CC=CC=C4)C5=CC=C(C=C5)F)CC3 + N=C(N)NC(=N)NCCc1ccccc1 [Phenformin] (partner 250 µM)
In short: as §1

[4] = compound: CC1=C(C(=O)N2C=CSC2=N1)CCN3CCC(=C(C4=CC=CC=C4)C5=CC=C(C=C5)F)CC3 + CC(=O)Nc1cccc(-n2c(=O)n(C3CC3)c(=O)c3c(Nc4ccc(I)cc4F)n(C)c(=O)c(C)c32)c1 [Trametinib] (partner 0.02 µM)
In short: as §1

| Cell Line | relative viability ([1]; first compound 0.253 µM) | relative viability ([1]; first compound 0.8 µM) | relative viability ([1]; first compound 2.53 µM) | relative viability ([1]; first compound 8 µM) | relative viability ([2]; first compound 0.08 µM) | relative viability ([2]; first compound 0.8 µM) | relative viability ([2]; first compound 2.53 µM) | relative viability ([2]; first compound 8 µM) | relative viability ([3]; first compound 0.08 µM) | relative viability ([3]; first compound 0.253 µM) | relative viability ([3]; first compound 0.8 µM) | relative viability ([3]; first compound 2.53 µM) | relative viability ([3]; first compound 8 µM) | relative viability ([4]; first compound 0.08 µM) | relative viability ([4]; first compound 0.253 µM) | relative viability ([4]; first compound 0.8 µM) | relative viability ([4]; first compound 2.53 µM) | relative viability ([4]; first compound 8 µM) | relative viability ([1]; first compound 0.08 µM) | relative viability ([2]; first compound 0.253 µM) |
| --- | --- | --- | --- | --- | --- | --- | --- | --- | --- | --- | --- | --- | --- | --- | --- | --- | --- | --- | --- | --- |
| EPLC-272H | 0.921 | 0.809 | 1.09 | 0.873 | 0.693 | 0.911 | 0.758 | 0.742 | 0.333 | 0.328 | 0.286 | 0.286 | 0.391 | 0.379 | 0.295 | 0.305 | 0.281 | 0.255 |  |  |
| RERF-LC-KJ | 0.753 | 0.921 | 0.907 | 0.666 | 0.968 | 0.845 | 0.89 | 0.706 | 0.345 | 0.427 | 0.414 | 0.534 | 0.289 | 0.833 | 0.893 | 0.837 | 0.794 | 0.578 | 0.873 | 0.819 |
| NCI-H2347 | 1.12 | 0.965 | 0.931 | 0.917 | 0.58 | 0.616 | 0.549 | 0.598 | 0.299 | 0.403 | 0.317 | 0.421 | 0.397 | 0.271 | 0.267 | 0.262 | 0.352 | 0.309 | 0.947 | 0.571 |
| NCI-H838 | 0.826 | 0.917 | 1.43 | 0.596 | 0.747 | 0.849 | 0.925 | 0.604 | 0.629 | 0.533 | 0.569 | 0.576 | 0.464 | 0.391 | 0.558 | 0.565 | 0.617 | 0.24 | 0.806 | 0.801 |
| SW 1573 | 1.2 | 1.05 | 1.27 | 1.06 | 0.502 | 0.465 | 0.625 | 0.357 |  | 0.343 | 0.4 | 0.377 | 0.24 | 0.562 | 0.678 | 0.646 | 0.652 | 0.354 | 1.26 | 0.323 |
| SK-MES-1 | 0.537 | 0.478 | 0.437 | 0.481 | 0.961 | 0.725 | 0.827 | 0.64 | 0.608 | 0.693 | 0.699 | 0.73 | 0.522 | 0.578 | 0.523 | 0.545 | 0.594 | 0.474 | 0.453 | 0.583 |
| NCI-H2023 | 0.796 | 0.783 | 0.966 | 0.9 | 0.563 | 0.509 | 0.607 | 0.394 | 0.441 | 0.312 | 0.426 | 0.389 | 0.251 | 0.592 | 0.478 | 0.588 | 0.617 | 0.452 | 0.876 | 0.454 |
| NCI-H1666 | 0.704 | 0.584 | 0.621 | 0.486 | 0.698 | 0.684 | 0.751 | 0.764 | 0.531 | 0.609 | 0.581 | 0.591 | 0.527 | 0.76 | 0.891 | 0.9 | 0.985 | 0.717 | 0.565 | 0.756 |
| NCI-H596 | 1.17 | 1.06 | 0.989 | 1.06 | 0.67 | 0.677 | 0.695 | 0.708 | 0.702 | 0.826 | 0.915 | 0.74 | 0.578 | 0.703 | 0.815 | 0.913 | 0.863 | 0.708 | 1.05 | 0.646 |
| H3255 | 0.32 | 0.249 | 0.309 | 0.246 | 0.503 | 0.548 | 0.6 | 0.504 | 0.341 | 0.34 | 0.352 | 0.37 | 0.38 | 0.611 | 0.577 | 0.66 | 0.613 | 0.417 | 0.221 | 0.63 |
| NCI-H2087 | 0.88 | 1.07 | 1.23 | 0.843 | 0.564 | 0.57 | 0.756 | 0.445 | 0.333 | 0.434 | 0.529 | 0.585 | 0.323 | 0.177 | 0.211 | 0.256 | 0.255 | 0.705 | 1.13 | 0.559 |
| BEN | 0.626 | 0.798 | 0.757 | 0.53 | 1.07 | 1.09 | 1.06 | 0.89 | 0.255 | 0.281 | 0.247 | 0.316 | 0.21 | 0.798 | 1.13 | 1.06 | 1.16 | 0.944 | 0.507 | 1.22 |
| NCI-H1975 | 0.855 | 0.867 | 0.891 | 0.518 | 0.674 | 0.899 | 0.852 | 0.433 | 0.393 | 0.425 | 0.397 | 0.441 | 0.381 | 0.349 | 0.389 | 0.389 | 0.35 | 0.311 | 0.97 | 0.714 |
| NCI-H520 | 0.693 | 0.942 | 1.1 | 0.684 | 0.358 | 0.341 | 0.31 | 0.306 | 0.784 | 0.643 | 0.836 | 0.539 | 0.468 | 0.712 | 0.625 | 0.631 | 0.778 | 0.393 | 0.78 | 0.342 |
| PC-3 [JPC-3] | 0.496 | 0.454 | 0.454 | 0.449 | 1.04 | 1.21 | 1.31 | 1.05 | 0.49 | 0.451 | 0.454 | 0.525 | 0.495 | 0.645 |  | 0.834 | 0.822 | 0.664 | 0.392 |  |
| COR-L 105 | 0.443 | 0.336 | 0.379 | 0.401 | 0.542 | 0.633 | 0.753 | 0.609 | 0.484 | 0.467 | 0.402 | 0.499 | 0.387 | 0.417 | 0.459 | 0.405 | 0.495 | 0.43 | 0.33 | 0.718 |
